In patent US8017557B2, “Benzodioxole derivatives as modulators of proteolytic activity in plants” (Endura S.p.A., priority 2002, dated 2011):
Like-named read-outs stand apart in the source and are kept apart here.

Experiments:
[1] = system: endopeptidase activity in cotton sprouts; conditions: for absorbance reading, Mean, Cotton Sprouts Treated with PBO / absorbance reading, replicate 1, Cotton Sprouts Treated with PBO / absorbance reading, replicate 2, Cotton Sprouts Treated with PBO / absorbance reading, replicate 3, Cotton Sprouts Treated with PBO / Endopeptidase Activity (U × 10^3), Cotton Sprouts Treated with PBO: pH 7.7; for absorbance reading, Mean, Cotton Sprouts Treated with PBO / absorbance reading, replicate 1, Cotton Sprouts Treated with PBO / absorbance reading, replicate 2, Cotton Sprouts Treated with PBO / absorbance reading, replicate 3, Cotton Sprouts Treated with PBO / % difference of endopeptidase activity, treated vs untreated / Endopeptidase Activity (U × 10^3), Cotton Sprouts Treated with PBO: 4 days of germination, PBO 1% w/v; for Δ U (endopeptidase activity, untreated vs PBO treated): same scale as Activity (U × 10^3)
Description: The extent of hydrolytic activity in cotton sprouts was measured at 15′, 30′, 60′, 90′ and 120′ after solubilization of the acetonic powder in aqueous buffer at pH 7.7 by determining the absorbance at 280 nm in a quartz cuvette after protein precipitation with TCA and removal by centrifugation. Each series of analysis was performed in […]. The comparison between the values of […] activity in treated (dark grey) and untreated (light grey) samples was done using the average value of each series of analysis. Abscissa: time (min); ordinate: Abs 280 nm.
The basic idea was to “freeze” the physiologic protein hydrolysis enzymatic activity and to re-establish the process simply solubilizing the proteolytic enzymatic system in suitable buffers, which were 0.1 M phosphate pH 6.5 and 0.1 M tris-HCl pH 7.7, for evaluating both the carboxypeptidase and the endopeptidase activities according to the method described by Hile et al. 1972; Funkhouser et al. 1980.
Cotton seeds (cv. Carmela) were obtained from “Semillas Battle”, Barcelona (E).
The seeds were previously rinsed in tap water and then imbibed with aeration in distilled water over night (Funkhouser, E. A. et al., Z. Pflanzenphysiol., 1980, 100, 319-324).
The plastic boxes containing seeds were covered by a plastic film and placed in a germinator in the dark for 4 days at 30° C. as described in Hile, J. N. and Dure, L. S. J. Biol. Chem., 1972, 247: 5034-5040.
The cotton sprouts of 4 days were collected and frozen in liquid nitrogen and freeze dried (Hile et al. 1972). After this process, the material was crushed in a pestle and freed from fibrous material and settled up to obtain a pretty homogeneous meal of about 0.5 mesh.
The meals were defatted using n-hexane (1:10 w/v) at room temperature and then treated with acetone at −20° C. to remove pigments and polyphenolic compounds, in this case mainly gossypol. The powders obtained were stored in a dry box at room temperature.
The acetonic powder (30 mg) was suspended in buffer (4 ml) and incubated at 37° C. for 15′, 30, 60, 90, 120 minutes. The proteolysis was stopped adding 1 ml of 12% trichloroacetic acid. In this case the buffer used was 0.1 M phosphate pH 7.7 (Funkhouser et al. 1980). The control was a suspension of the same sample prepared in the same way but was immediately deactivated, adding up 1 ml of trichloroacetic acid. The trials with treated and untreated samples were carried out at the same time.
Proteins were precipitated with trichloroacetic acid and then removed by filtration, before with Whatman paper n. 4 and then by micro-filtration (Orange Scientific Braine I'Alleud, Belgium (Ø0.2 μm)). Finally, the hydrolyzed protein samples were analyzed as clear solutions by determining the absorbance at 280 nm in a quartz cuvette.
Each series of analysis was performed threefold. The comparison between the values of endopeptidase activity of treated and untreated samples was done using the average value of each series of analysis.

bromelain = bromelain (Ananas comosus, UniProt P14518); conditions: for initial velocity, Mean / initial velocity, test 1 / initial velocity, test 2 / Mean (% contr.): 1% PBO; for Mean (% contr.): % of control
bromelain, sequence (P14518 whole entry): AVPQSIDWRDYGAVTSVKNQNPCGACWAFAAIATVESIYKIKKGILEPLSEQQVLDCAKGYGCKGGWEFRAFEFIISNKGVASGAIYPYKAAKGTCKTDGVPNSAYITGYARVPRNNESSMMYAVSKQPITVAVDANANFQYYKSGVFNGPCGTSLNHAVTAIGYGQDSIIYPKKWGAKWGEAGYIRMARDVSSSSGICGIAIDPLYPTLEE
Description: The assay was carried out as described in Heinrikson & Kezdy, 1976, Methods in Enzymol. 45, p. 740. The conditions are summarised briefly herein: 50 μg of bromelain was mixed with variable quantities of Na CBZ-L-lysine p-nitrophenyl ester substrate in 3 ml of 10 mM acetate buffer pH 4.6 containing KCl (0.1 M) and L-cystein (1 mM).

ficin = conditions: Wo 25, HEPES pH 7.1, 30° C.
Description: Reverse micelles assay of ISO-AOT 50 mM (AOT: twin aerosol (2-ethylhexylsodiumsulfosuccinate in isooctane (ISO)); Wo (H2O/AOT)=25
The assays were carried out in the reverse-micelles assay dispersed in organic solvent, described by Walde et al. in Eur. J. Biochem., 1988, 173:401-409, and already reported in the literature in kinetic studies of the inhibition of trypsin with natural and synthetic inhibitors. […]
The enzyme assay on reverse-micelle has been already described in the literature for the enzyme trypsin and was adapted to different enzymes. […] To this solution was added an appropriate volume of substrate CBZ (dissolved in acetonitrile/H2O, 80:20 (v/v) at a concentration of 15 mM) and following further agitation (the solution returned to being transparent), the change in absorbance was measured (Dabs) at 340 nm with a Cary 219 spectrophotometer.
The experimental data obtained are represented graphically in the form of Dixon-plot (described for example in: “Quantitative Problems in Biochemistry”, E A. Dawes, 5th ed. 1972 Baltimore, The Williams and Wilkins Company), in the FIGS. 1, 2 and 3.

[2] = Time 0 (immediately deactivated)
[3] = PBO 0.334 % (w/w), substrate 240 μM
[4] = PBO 0.5 % (w/w), substrate 240 μM
[5] = PBO 0.667 % (w/w), substrate 240 μM
[6] = PBO 1 % (w/w), substrate 240 μM
[7] = PBO 1.334 % (w/w), substrate 240 μM
[8] = PBO 1.667 % (w/w), substrate 240 μM

In the case of `CCCCOCCOCCOCc1cc2c(cc1CCC)OCO2` [PBO, 5-[[2-(2-Butoxyethoxy)ethoxy]methyl]-6-propyl-1,3-benzodioxole], the “endopeptidase activity in PBO treated cotton sprouts” value ([1]; FIG. 5, treated vs untreated cotton sprouts) is reported as “lower than in the untreated ones”, the “absorbance reading, Mean, Cotton Sprouts Treated with PBO” value (shortened to “absorbance reading, Mean”) [1, 2] is reported as 868.00 and the “absorbance reading, replicate 1, Cotton Sprouts Treated with PBO” value [1, 2] is reported as 821.00. The “absorbance reading, replicate 2, Cotton Sprouts Treated with PBO” value [1, 2] was 897.00, the “absorbance reading, replicate 3, Cotton Sprouts Treated with PBO” value [1, 2] was 886.00 and the “% difference of endopeptidase activity, treated vs untreated” value (from here on “% difference of endopeptidase activity”) ([1]; Time 15′) was 47.86%. The “Endopeptidase Activity (U × 10^3), Cotton Sprouts Treated with PBO” value (“Endopeptidase Activity … with PBO” for short) ([1]; Time 15′) was 50.67 U × 10^3, the “absorbance reading, Mean” value ([1]; Time 15′) was 918.67 and the “absorbance reading, replicate 1, Cotton Sprouts Treated with PBO” value ([1]; Time 15′) was 965.00. The “absorbance reading, replicate 2, Cotton Sprouts Treated with PBO” value ([1]; Time 15′) was 876.00, the “absorbance reading, replicate 3, Cotton Sprouts Treated with PBO” value ([1]; Time 15′) was 915.00 and the “Δ U (endopeptidase activity, untreated vs PBO treated)” value ([1]; Time 15′) was 46.50 U. For the same compound, the “% difference of endopeptidase activity” value ([1]; Time 30′) was 29.00%, the “Endopeptidase Activity … with PBO” value ([1]; Time 30′) was 82.00 U × 10^3 and the “absorbance reading, Mean” value ([1]; Time 30′) was 950.00. The “absorbance reading, replicate 1, Cotton Sprouts Treated with PBO” value ([1]; Time 30′) was 965.00, the “absorbance reading, replicate 2, Cotton Sprouts Treated with PBO” value ([1]; Time 30′) was 935.00 and the “absorbance reading, replicate 3, Cotton Sprouts Treated with PBO” value ([1]; Time 30′) was 950.00. The “Δ U (endopeptidase activity, untreated vs PBO treated)” value ([1]; Time 30′) was 33.50 U, the “% difference of endopeptidase activity” value ([1]; Time 60′) was 12.86% and the “Endopeptidase Activity … with PBO” value ([1]; Time 60′) was 148.00 U × 10^3. The “absorbance reading, Mean” value ([1]; Time 60′) was 1016.00, the “absorbance reading, replicate 1, Cotton Sprouts Treated with PBO” value ([1]; Time 60′) was 1038.00 and the “absorbance reading, replicate 2, Cotton Sprouts Treated with PBO” value ([1]; Time 60′) was 1038.00. For the same compound, the “absorbance reading, replicate 3, Cotton Sprouts Treated with PBO” value ([1]; Time 60′) was 972.00, the “Δ U (endopeptidase activity, untreated vs PBO treated)” value ([1]; Time 60′) was 21.83 U and the “% difference of endopeptidase activity” value ([1]; Time 90′) was 28.80%. The “Endopeptidase Activity … with PBO” value ([1]; Time 90′) was 127.33 U × 10^3, the “absorbance reading, Mean” value ([1]; Time 90′) was 995.33 and the “absorbance reading, replicate 1, Cotton Sprouts Treated with PBO” value ([1]; Time 90′) was 1015.00. The “absorbance reading, replicate 2, Cotton Sprouts Treated with PBO” value ([1]; Time 90′) was 991.00, the “absorbance reading, replicate 3, Cotton Sprouts Treated with PBO” value ([1]; Time 90′) was 980.00 and the “Δ U (endopeptidase activity, untreated vs PBO treated)” value ([1]; Time 90′) was 51.50 U. For the same compound, the “% difference of endopeptidase activity” value ([1]; Time 120′) was 22.48%, the “Endopeptidase Activity … with PBO” value ([1]; Time 120′) was 129.33 U × 10^3 and the “absorbance reading, Mean” value ([1]; Time 120′) was 997.33. The “absorbance reading, replicate 1, Cotton Sprouts Treated with PBO” value ([1]; Time 120′) was 1017.00, the “absorbance reading, replicate 2, Cotton Sprouts Treated with PBO” value ([1]; Time 120′) was 960.00 and the “absorbance reading, replicate 3, Cotton Sprouts Treated with PBO” value ([1]; Time 120′) was 1015.00. For the same compound, the “Δ U (endopeptidase activity, untreated vs PBO treated)” value ([1]; Time 120′) was 37.50 U, the “initial velocity, Mean” value (bromelain; substrate 24 μM) was 0.0136 absorbance at 340 nm/min and the “initial velocity, test 1” value (bromelain; substrate 24 μM) was 0.0141 absorbance at 340 nm/min. The “initial velocity, test 2” value (bromelain; substrate 24 μM) was 0.0130 absorbance at 340 nm/min, the “Mean (% contr.)” value (bromelain; substrate 24 μM) was 68% and the “initial velocity, Mean” value (bromelain; substrate 48 μM) was 0.0270 absorbance at 340 nm/min. The “initial velocity, test 1” value (bromelain; substrate 48 μM) was 0.0243 absorbance at 340 nm/min, the “initial velocity, test 2” value (bromelain; substrate 48 μM) was 0.0297 absorbance at 340 nm/min and the “Mean (% contr.)” value (bromelain; substrate 48 μM) was 68%. The “initial velocity, Mean” value (bromelain; substrate 96 μM) was 0.0490 absorbance at 340 nm/min, the “initial velocity, test 1” value (bromelain; substrate 96 μM) was 0.0518 absorbance at 340 nm/min and the “initial velocity, test 2” value (bromelain; substrate 96 μM) was 0.0461 absorbance at 340 nm/min. The “Mean (% contr.)” value (bromelain; substrate 96 μM) was 78%, the “Initial velocity (% of control), Exp. 1” value (bromelain; [3]) was 95% and the “Initial velocity (% of control), Exp. 2” value (bromelain; [3]) was 98%. The “Initial velocity, Exp. 1” value (bromelain; [3]) was 0.1306 absorbance at 340 nm/min, the “Initial velocity, Exp. 2” value (bromelain; [3]) was 0.1197 absorbance at 340 nm/min and the “Initial velocity, Exp. 3” value (bromelain; [3]) was 0.1029 absorbance at 340 nm/min. For the same compound, the “Initial velocity (% of control), Exp. 1” value (bromelain; [4]) was 91%, the “Initial velocity, Exp. 1” value (bromelain; [4]) was 0.1252 absorbance at 340 nm/min and the “Initial velocity (% of control), Exp. 2” value (bromelain; [5]) was 88%. For the same compound, the “Initial velocity, Exp. 2” value (bromelain; [5]) was 0.1079 absorbance at 340 nm/min, the “Initial velocity (% of control), Exp. 1” value (bromelain; [6]) was 86% and the “Initial velocity (% of control), Exp. 2” value (bromelain; [6]) was 86%. For the same compound, the “Initial velocity, Exp. 1” value (bromelain; [6]) was 0.1194 absorbance at 340 nm/min, the “Initial velocity, Exp. 2” value (bromelain; [6]) was 0.1057 absorbance at 340 nm/min and the “Initial velocity (% of control), Exp. 2” value (bromelain; [7]) was 84%. For the same compound, the “Initial velocity, Exp. 2” value (bromelain; [7]) was 0.1029 absorbance at 340 nm/min, the “Initial velocity (% of control), Exp. 2” value (bromelain; [8]) was 76% and the “Initial velocity, Exp. 2” value (bromelain; [8]) was 0.0927 absorbance at 340 nm/min. The “PBO concentration with inhibitory activity on bromelain” value (bromelain; substrate 240 μM, concentration dependent) was “higher than 0.5%”, the IC50 (ficin; read-out: IC50 of PBO on ficin, evaluated from Dixon plot) was 800 µM and the Ki (ficin; read-out: inhibition constant (KI) of PBO on the enzyme ficin, Dixon plot, substrate CBZ 1.5×10^−4 M and 6×10^−5 M) was 450 µM.
